Here are results for one compound from US12234228B2, “Nitric oxide donor and anti-oxidant compounds” (University of North Texas Health Science Center, priority 2018, dated 2025).

SMILES strings stand for the structures. Entries after “also recorded” stand apart in the source; their conditions may differ.

The subject of test [1] is endothelial cells. In words: transwell chemotaxis EC migration under oxidative stress. Type of test: cell-based, Human. How it is done:
Cell migration studies. Transwell chemotaxis migration studies were conducted to study effects of SA-2 and SA-10 drugs on the migration of endothelial cells under stress conditions. To this, ECs were seeded at 50,000 cells/cm^2 on upper compartment (low serum media with 200 μM H2O2) and attracted to migrate through 8 μm-pore membrane by chemotaxis (SA compounds dissolved in low serum media with 200 μM H2O2) added in lower compartment. At 12 hours, migrated cells were fixed with 4% paraformaldehyde and stained with crystal violet prior to imaging and counting by Cell counter on ImageJ.

In test [2] the test system is human trabecular meshwork cells. The test can be described thus: cytoprotection of human trabecular meshwork cells under TBHP induced oxidative stress. Type of test: cell-based. To be noted: TBHP (300 μM) induced oxidative stress.
The subject of test [3] is ischemic hindlimb mice. In words: hind limb ischemia (PAD) model: blood perfusion and treadmill. Type of test: in vivo, mouse. The source says: Parameters: Incline 30 degrees; max endurance test at […]; stimulation: 1.5 mA. Stimulation and distance count were stopped when a mouse met one of the following conditions: 1) total stimulation time 30 seconds; or 2) single stimulation time is more than 10 seconds.
Animal model. Since PAD happens commonly in old people, the inventor used old mice for ischemic hindlimb animal models. To this, male and female Balb/c mice at age of 30-40 weeks old were chosen for these in vivo studies. Animals were housed in individual cage at normal diet before performing ligation. In brief, animals were anesthetized with 2% isoflurane, and prior to incision, analgesic SR Buprenorphine was injected subcutaneously (at dose of 1 mg/kg for mice). Upon opening the incision on animals left legs, the membrane covering the inguinal fat tissue was carefully separated to expose the neurovascular bundle underneath and veins and nerves were then carefully separated from arteries. Next, three pair of 1 mm-distal ties (using 6-0 or 7-0 nonabsorbable suture) followed by transection (by spring scissor) were made on femoral artery, proximal caudal femoral artery and superficial caudal epigastric artery. Finally, the incision was closed by absorbable 5-0 or 6-0 sutures. The animal model appeared limping similar to literature report^37 from the time post-treatment until endpoint study.
Therapeutic groups of study and sample size. After 3 days of ligation, mice were randomly assigned into 4 groups: Sham, free SA-10, SA-10 NPs and blank PLGA NPs. Sham groups were injected with saline without any therapeutic treatment. Based on study of biodistribution, the route of administration was intramuscular (IM) injection. To determine sample size, a power of analysis was processed on SigmaPlot v.13 software. Significant difference would be considered when P<0.05. Based on the inventor's own experience and literature reports, the inventor selected power with α<0.05 as 0.8. Calculation yielded sample size as n=5.
In vivo blood perfusion and physical test. Animals under treatments were measured for their recovery physiologically and physically. In the former study, animals were anesthetized with 1.5-2% isoflurane, and blood perfusion was measured with Laser Speckle Contrast Imaging (PeriCam PSI NR, Perimed AB). Briefly, hemoglobin in shallow vessels and capillaries responded to exciting lasers in term of color pigments. The relative blood perfusion was calculated by device software (PIMSoft), and it correlated to typical pigments. […]
When the animal was not running for total of 30 seconds under stimulation, the run of animals was terminated from recording. Physical recovery of animals was then quantified as covered distance until exhaustion, which was obtained from the treadmill software.

Test [4] concerns plasminogen activating inhibitor-1 (PAI-1). In words: DEX induced PAI-1 in human trabecular meshwork cells (western blot). As to conditions: DEX 100 nM, compound 100 μM, 48 hr, conditioned medium. Type of test: cell-based. How it is done: Briefly, cells were plated at a density of 2×10^5 cells per well and were treated with DEX (100 nM) or vehicle (ethanol) in the presence of 100 μM of SA-1, SA-2, SA-9, SA-10 and PBA (positive control) for 48 hr. Conditioned medium was collected for western blot. Experiments were performed in triplicates.
In vitro plasminogen activating inhibitor-1 (PAI-1) activity. Human primary trabecular meshwork (hTM) cells were plated in 6-well plates at a density of 2×10^5 cells per well and were treated with dexamethasone (DEX, 100 nM) or vehicle (ethanol) in the presence of test compounds (100 μM) for 48 hr. Conditioned medium was collected for Western Blot. Experiments were performed in triplicates […].
On the technique in general: In western blotting, separated proteins are transferred to a membrane and probed.

For the compound `Nc1c[n+](C2CCS(=O)(=O)CC2)no1` [SA-10], the EC migration result in test [1] is listed as “induce EC migration; also recorded: performed comparably to SA-2”. Further, the “EC migration (FIG. 6)” value in test [1] (0.5 μM, transwell) is reported as “induce EC migration”. Moreover, in test [2], the cytoprotective activity entry is “cytoprotective activity”. Besides, the blood perfusion indexes entry in test [3] (0.125 mg/kg drug, IM, ischemic versus normal limb) was “performed better than sham and blank vehicle at the beginning”. The endurance run result in test [3] (0.125 mg/kg drug, IM, treadmill distance until exhaustion) is “performed better than sham and blank vehicle at the beginning”. For the same compound, in test [3] (IM injection, day 0 and day 7, vs. sham and VEGF), the “recovery in treadmill experiment” value is on record as “good recovery effects”. For the same compound, the “new blood vessel formation and blood circulation” value in test [3] (mouse leg after artery occlusion, assessed by treadmill) was “increase new blood vessel formation and blood circulation”. Moreover, the “DEX induced PAI-1” value in test [4] is “showed inhibition; also recorded: decreased DEX induced increase in PAI-I level”.
